75 compounds from PubChem BioAssay AID1996 can be followed below.

Converted amounts (≈) assume the structure as drawn.

The conditions of the series: buffer; pH 7.4; 200.0 µM.
For orientation: solubility (kinetic) means the concentration staying in solution when a stock, usually in DMSO, is diluted into the medium. As to `COC(=O)c1ccc(OCC(=O)NC2CCCCCCC2)cc1`, the kinetic solubility is over 47.9 µg/mL. `CN(C(=O)COC(=O)c1cccc(F)c1)c1ccccc1` yielded a solubility (kinetic) of 32 µg/mL (≈ 111 µM). As for `Cc1ccc(C(=O)OCC(=O)NC(=O)c2ccccc2)o1`, the kinetic solubility was found to be 32.9 µg/mL (≈ 115 µM). `O=C(NCc1cccnc1)Nc1cccc(Cl)c1`: the kinetic solubility came out at 37.2 µg/mL (≈ 142 µM). `CC(C)COc1ccc(Br)cc1CNC(C)(C)C.Cl`: the solubility (kinetic) stood at 50.7 µg/mL. For `CC1=CCC(C(=O)O)C(C(=O)NC2CCCCC2)C1` (stereo not given) the value was over 39.8 µg/mL. `Fc1ccc(-c2onc3ccc(C4OCCO4)cc23)cc1`: the solubility (kinetic) is under 0.6 µg/mL. Turning to `CSCCC(NC(=O)/C(=C/c1ccco1)NC(=O)c1ccco1)C(=O)O` (stereo not given), the solubility (kinetic) is over 56.8 µg/mL. Next, `CCS(=O)(=O)N1CCC(C(=O)Oc2ccc(Cl)cc2)CC1`: 9.9 µg/mL (≈ 29.8 µM); `Cc1c(Cl)cccc1-n1cnc(=O)c2ccccc21`: over 40.6 µg/mL; `O=[N+]([O-])CC(c1ccccc1)P(=O)(c1ccccc1)c1ccccc1` (stereo not given): 9.1 µg/mL (≈ 25.9 µM). `O=S(=O)(c1cc(F)ccc1F)N1CCN2CCCC2C1` (stereo not given) yielded a solubility (kinetic) of over 45.4 µg/mL. `CCN(C(=O)CSc1ccc2ccccc2n1)C1CCCCC1`: the kinetic solubility was found to be 14.6 µg/mL (≈ 44.4 µM). As for `COc1cc(CO)ccc1OCc1ccc(Cl)nc1`, the kinetic solubility is over 42 µg/mL. Next, `C=CCn1cccc(C(=O)Nc2ccc(C)c(Cl)c2)c1=O`: under 0.3 µg/mL.

Compound `COc1ccccc1N1CCN(C(=O)Cc2ccc(Cl)cc2)CC1` yielded a solubility (kinetic) of 50.6 µg/mL (≈ 147 µM). In the case of `CSc1ncccc1C(=O)NCc1ccccc1Cl`, the solubility (kinetic) came to 38.1 µg/mL (≈ 130 µM). Next, `OC(COc1ccccc1)CN1CCCCCC1` (stereo not given): over 37.4 µg/mL; `O=C(Nc1cccc2ncccc12)c1cc([N+](=O)[O-])ccc1Cl`: 3.2 µg/mL (≈ 9.76 µM). Next, `O=S(=O)(c1ccc(F)cc1)N1CCN(c2ncccn2)CC1`: 8.3 µg/mL (≈ 25.7 µM); `O=C1COc2ccc(C(=O)C[n+]3cccc(O)c3)cc2N1.[Cl-]`: over 48.1 µg/mL. `COC(=O)c1ccc(CN2C(=O)C3CCCCC3C2=O)o1` (stereo not given) returned a kinetic solubility of over 43.7 µg/mL. On to `S=C(NCCCN1CCOCC1)Nc1cccc(Cl)c1`, for which the kinetic solubility is over 47.1 µg/mL. Turning to `O=c1c(NCCc2ccccc2)c(-c2ccccc2)c1=O`, the solubility (kinetic) was under 0.6 µg/mL. Take `CCCCNC(=O)CC1NCCNC1=O` (stereo not given): the kinetic solubility was over 32 µg/mL.

`Cl.c1ccc(CNc2c3c(nc4ccccc24)CCC3)cc1` displayed a kinetic solubility of over 46.6 µg/mL.

Turning to `Cn1c(Br)nc2c1c(=O)n(Cc1ccccc1)c(=O)n2C`, the solubility (kinetic) is 46.1 µg/mL (≈ 132 µM). The compound `Cc1csc2c(=O)sc(NC(=O)c3cccs3)nc12` showed a kinetic solubility of 0.6 µg/mL (≈ 1.95 µM). Regarding `CCOC(=O)c1sc2ncnc(Nc3cccc(C(=O)O)c3)c2c1C`, the kinetic solubility was over 53.6 µg/mL. For `COc1ccc(N2CC(NC(=O)N(C)CCC#N)CC2=O)cc1` (stereo not given) the value was 46.7 µg/mL (≈ 148 µM); for `Cc1ccc(Nc2cc(C)nc3ccccc23)c(C)c1`, over 39.4 µg/mL; for `CCOC(=O)C1CCN(C/C=C/c2ccccc2[N+](=O)[O-])CC1`, 39.3 µg/mL (≈ 123 µM). With `CCN(CC(=O)NC(=O)NC1CCCC1)Cc1ccccc1`, the kinetic solubility is over 45.5 µg/mL. In turn, `Cn1c(C(=O)O)c(S(=O)(=O)c2ccc(Cl)cc2)c2ccccc21` registered a solubility (kinetic) of 51.8 µg/mL (≈ 148 µM). With `CC1CCCCC1Nc1ncnc2sccc12` (stereo not given), the kinetic solubility was over 37.1 µg/mL. The compound `CCC(NC(C)C)C(O)c1ccc(O)c(O)c1.CS(=O)(=O)O` (stereo not given) showed a kinetic solubility of over 50.3 µg/mL. `CC1CCCCN1C(=O)c1cc(-c2ccc3c(c2)OCO3)on1` (stereo not given) had a solubility (kinetic) of 39.9 µg/mL (≈ 127 µM). Next, `Cc1ccc(OCc2cnc(Cl)s2)c(C)c1`: under 0.5 µg/mL; `CN(C)C(=O)c1ccccc1NC(=O)Cc1cccc2ccccc12`: 49.8 µg/mL (≈ 150 µM). For `CCCNC(=O)Nc1cccc(NC(C)=O)c1` the value was over 35.3 µg/mL; for `O=C(Nc1nc2ccccc2n1CCN1CCOCC1)c1ccccc1`, 51.4 µg/mL (≈ 147 µM); for `C=CCNc1cc(C)oc(=O)c1C(=O)CC`, over 33.2 µg/mL.

On to `O=C(CNc1cccc(F)c1)N1CCc2ccccc2C1`, for which the kinetic solubility came out at 8.4 µg/mL (≈ 29.5 µM). In the case of `Cc1noc(C(=O)Nc2ccc(C#N)cc2)c1Cl`, the kinetic solubility came out at 1.6 µg/mL (≈ 6.11 µM).

The compound `Cc1ccc(CN(Cc2ccco2)C(=S)NCC(=O)NC2CC2)cc1` came in with a solubility (kinetic) of 47.2 µg/mL (≈ 132 µM). `CCCCNC(=S)Nc1ccc2[nH]c(=O)[nH]c2c1` showed a kinetic solubility of 18.4 µg/mL (≈ 69.6 µM).

`O=[N+]([O-])c1cccc(S(=O)(=O)NCc2ccccn2)c1` returned a kinetic solubility of 41.2 µg/mL (≈ 140 µM). In turn, `O=C(Nc1ccccc1)N1CCCN(c2ccc(C(F)(F)F)cn2)CC1` yielded a solubility (kinetic) of 9.7 µg/mL (≈ 26.6 µM). Next, `Nn1c(SCC(=O)NCC2CCCO2)nnc1-c1ccco1` (stereo not given): over 48.5 µg/mL; `CC(=O)N1CC(=O)N(c2ccccc2)C1=O`: over 32.7 µg/mL; `Cc1cccc(C)c1OCC(=O)NCC1CCCO1` (stereo not given): 39.5 µg/mL (≈ 150 µM). `CC(=O)c1ccc(Oc2ncnc(N)c2[N+](=O)[O-])cc1`: the solubility (kinetic) worked out at 2.3 µg/mL (≈ 8.39 µM). The compound `C/C=C/C(=O)Nc1ccc(N2CCN(c3ccc(C(F)(F)F)cn3)CC2)nc1` displayed a kinetic solubility of under 0.2 µg/mL. Regarding `CC(=O)COc1nc2c(c(-c3ccco3)c1C#N)CCc1ccccc1-2`, the kinetic solubility came to 1.7 µg/mL (≈ 4.94 µM). Next, `COC(=O)Cn1cc(C(=O)C(C)(C)C)c2ccccc21`: 37.1 µg/mL (≈ 136 µM); `COc1ccc2[nH]cc(CCNC(=O)Cc3ccc(F)cc3)c2c1`: 25.4 µg/mL (≈ 77.8 µM); `CC(NC(=O)COC(=O)c1cccs1)c1ccccc1` (stereo not given): 11.9 µg/mL (≈ 41.1 µM). Turning to `O=C(NCC(=O)N1CCCCC1)c1ccc2ccccc2c1`, the kinetic solubility was over 44.5 µg/mL.

For `CN(C(=O)COC(=O)C1CCN(S(=O)(=O)c2ccc(Cl)cc2)CC1)C1CCS(=O)(=O)C1` (stereo not given), the solubility (kinetic) came to 18 µg/mL (≈ 36.5 µM).

Consider `COc1ccc(NC(=O)CN2CCCCCC2)cc1OC`, for which the kinetic solubility was determined as 32.2 µg/mL (≈ 110 µM). Next, `O=C(NCc1cccc(C(F)(F)F)c1)c1ccc(=O)[nH]c1`: over 44.4 µg/mL; `N#Cc1cccc(S(=O)(=O)NCc2nnc3ccccn23)c1`: over 47 µg/mL. Compound `O=C1Nc2ccccc2C1C(C[N+](=O)[O-])c1ccccc1` (stereo not given) showed a solubility (kinetic) of over 42.3 µg/mL.

On to `O=C(CN1C(=O)c2ccccc2S1(=O)=O)NC1CCCCC1`, for which the solubility (kinetic) was over 48.4 µg/mL. For the compound `O=[N+]([O-])c1ccc(NCc2ccc(Cl)cc2)c2ccncc12`, the kinetic solubility stood at 0.3 µg/mL (≈ 0.956 µM).

Take `Cc1ccc(/C=N/NC(=O)c2ccc3nc[nH]c3c2)s1`: the solubility (kinetic) is over 42.7 µg/mL.

Compound `COCCNC(=O)c1cccc2c1-c1ccccc1C2=O` returned a kinetic solubility of over 42.2 µg/mL. Consider `CC1CCCN(C(=O)CNC(=O)c2ccco2)C1` (stereo not given), for which the solubility (kinetic) was over 37.5 µg/mL.

For `CSc1ccccc1C(=O)OCC(=O)NCCN1C(=O)CSC1=O`, the kinetic solubility was over 55.3 µg/mL.

`Cc1cc(=O)[nH]c(SCc2cccc3cccnc23)n1` yielded a kinetic solubility of 13.4 µg/mL (≈ 47.3 µM). `Cc1ccc(C(=O)NCC(=O)OCC(=O)NC2CCCCCCC2)cc1` came in with a kinetic solubility of 53.2 µg/mL (≈ 148 µM). Consider `CSc1ccccc1NC(=O)Cc1ccccc1`, for which the solubility (kinetic) was over 38.6 µg/mL. For `COc1ccccc1N1C(=O)CC(N(O)c2ccccc2)C1=O` (stereo not given) the value was over 46.8 µg/mL; for `O=C(NCCN1CCOCC1)NC1(C(F)(F)F)Oc2ccc(Cl)cc2O1` (stereo not given), over 59.4 µg/mL. `Nc1nc(C(F)(F)F)cc(=O)[nH]1` showed a kinetic solubility of 22.8 µg/mL (≈ 127 µM).
